Results published in patent publication US9980943B2, “Methods of treating muscular dystrophy” (BOARD OF REGENTS OF THE NEVADA SYSTEM OF HIGHER EDUCATION, …, priority 2013, dated 2018).
Read-outs that look alike come from different tables or passages of the source.

System: α7 integrin (LacZ reporter in α7LacZ+/− myoblasts)
Assay: qHTS of the LOPAC library and MLSMR (online screen, α7LacZ+/− myoblasts)
Settings: Mus musculus, Myoblast; for activation at 0.307 µM: read-out: Activity at 0.307 uM [%] **; for activation at 1.53 µM: read-out: Activity at 1.530 uM [%] **; for activation at 7.66 µM: read-out: Activity at 7.660 uM [%] **; for activation at 38.3 µM: read-out: Activity at 38.30uM [%] **; for EC50: read-out: Fit LogAC50 (converted)
[1] = 48 h, read-out: Fit Infinite Activity [%]

Row | SMILES | activation at 0.307 µM (48 h) | activation at 1.53 µM (48 h) | activation at 7.66 µM (48 h) | activation at 38.3 µM (48 h) | Emax [1] | EC50 | Emax (read-out: Max Response [%])
1 | CN(C)/C=N/c1nccc(-c2cccs2)n1 [Compound 121] | 6.86% | 8.46% | 45% | 92.6% | 97.8% | 8.91 µM | 92.6%
2 | COCCN1C=C(C(=O)OC)C(c2ccccc2Cl)C(C(=O)OC)=C1 [Compound 123] | 5.12% | 12.1% | 45.1% | 85.5% | 96.9% | – | 85.5%
3 | CC1CCCCC12NC(=O)N(CC(=O)OCc1cccc(F)c1)C2=O (centres unmarked) [Compound 67] | 6.4% | 14.5% | 69.8% | 142% | 162% | 10 µM | 142%
4 | CCOC(=O)Cc1csc(NC(=S)NC(=O)c2cc(OC)c(OC)c(OC)c2)n1 [Compound 20] | -18.1% | -4.46% | 69.3% | 82.9% | 83.9% | 3.55 µM | –
5 | Cc1ccccc1C(=O)Nc1nnc(SC(C)C)s1 [Compound 196] | 0% | 0% | 20.6% | 65.1% | 66.6% | 10 µM | 65.1%
6 | CC(C)(C)N/C=C(\C#N)S(=O)(=O)c1ccc(Br)cc1 [Compound 173] | 10.4% | 21.1% | 42.1% | 72.3% | 93% | – | 72.3%
7 | O=S(=O)(N/C(=N/C1CCCCC1)c1ccccc1F)c1ccccc1 [Compound 156] | 0% | 0% | 22.9% | 65.3% | 67.8% | 10 µM | 65.3%
8 | CN(C)S(=O)(=O)c1cccc(C(=O)Nc2ccc3c(c2)CCC3)c1 [Compound 8] | -15.4% | -10.6% | 96.4% | 94.3% | 96% | 2.82 µM | –
9 | O=C(Nc1ccc(Cl)cc1N1CCOCC1)C1CCCCC1 [Compound 53] | 0% | 28.1% | 71.9% | 119% | 152% | 7.08 µM | –
10 | O=C(CN1CCOCC1)NCc1cc([N+](=O)[O-])ccc1O [Compound 166] | 10.3% | 15.6% | 41.7% | 87.7% | 104% | – | 87.7%
11 | O=C(N/N=C/c1cn[nH]c1-c1ccc(F)cc1)c1ccncc1 [Compound 128] | 17.3% | 12.6% | 22.6% | 152% | 154% | – | 152%
12 | COc1cccc(C(=O)NCC(=O)N2CCC3(CC2)NCCc2[nH]cnc23)c1 [Compound 93] | -3.47% | 0% | 36.3% | 102% | 114% | 11.2 µM | 102%
13 | COc1nccc(NCc2ccccc2)c1C#N [Compound 169] | -18.2% | -21.6% | 0.301% | 64.3% | 64.8% | 10 µM | 64.3%
14 | Cc1ccc(C2=C(CC(=O)O)C(=O)CC2)cc1 [Compound 86] | 10.4% | 28.9% | 57.4% | 80.4% | 94.7% | 4.47 µM | 80.4%
15 | CNc1nnc(SCC(=O)c2cc(C)n(C3CC3)c2C)s1 [Compound 68] | -11.8% | -22% | 4.46% | 220% | 222% | 12.6 µM | 220%
